This series in a line: in vitro. The following applies: human, hela cells, % viability.

Turning to `COc1ccc(CN(CCCN2CCOCC2)C(=O)NCCCN2CCCC2=O)cc1OC` [CBK159180], the viability (in general, a read-out of living cells in per cent, often relative to untreated cells) at 28.5 h, 10 µM was found to be 93.2%.

`CCOC(=O)N1CCC(NC(=O)N(CCCN(C)C)Cc2ccc3c(c2)OCO3)CC1` [CBK159231]: the viability at 28.5 h, 10 µM worked out at 91%.

For the molecule `COc1ccc(CN(CCN(C)C)C(=O)NCc2ccc(-c3ccccc3)cc2)cc1OC` [CBK159293], the viability at 28.5 h, 10 µM is 91.4%.

Consider `COc1ccc(CN(CCN2CCOCC2)C(=O)Nc2cccnc2)cc1OC` [CBK159379], for which the viability at 28.5 h, 10 µM is 93.2%.

For the molecule `CCN(CC)c1ccc(CN(CCCN(C)C)C(=O)NCc2ccc(F)cc2)cc1` [CBK159410], the viability at 28.5 h, 10 µM stood at 89.9%.

Consider `CSCCCNC(=O)N(Cc1cccnc1)Cc1ccc2c(c1)OCO2` [CBK159426], for which the viability at 28.5 h, 10 µM stood at 92.7%.

Turning to `CCc1c(C)nc2ccc(NC(C)=O)cc2c1SCCC(=O)O` [CBK159465T], the viability at 28.5 h, 10 µM is 98.7%.

Take `O=C(O)Cc1nc(-c2ccccc2)c(-c2ccccc2)s1` [CBK159470]: the viability at 28.5 h, 10 µM is 99.4%.

As for `CCCS(=O)(=O)Nc1cccc2[nH]ccc12` [CBK159488], the viability at 28.5 h, 10 µM was 97.5%.

As for `O=S(=O)(Cc1ccccc1)Nc1cccc2[nH]ccc12` [CBK159490], the viability at 28.5 h, 10 µM came to 76.6%.

As to `CN(C)S(=O)(=O)Nc1cccc2cc[nH]c12` [CBK159505], the viability at 28.5 h, 10 µM was 92.8%.

Take `CS(=O)(=O)Nc1cccc2cc[nH]c12` [CBK159509]: the viability at 28.5 h, 10 µM was 110%.

Turning to `O=S(=O)(Nc1ccc2c(ccn2Cc2ccccc2)c1)c1ccc(S(=O)(=O)c2ccccc2)s1` [CBK159533], the viability at 28.5 h, 10 µM amounted to 114%.

As for `O=[N+]([O-])c1ccc(S(=O)(=O)Nc2cccc3[nH]ccc23)cc1` [CBK159550], the viability at 28.5 h, 10 µM was 87.1%.

In the case of `CCc1c(C)nc2c(N3CCOC3=O)cccc2c1SCCC(=O)O` [CBK159595T], the viability at 28.5 h, 10 µM worked out at 91.7%.

Turning to `O=C(Nc1cccc2[nH]ccc12)c1ccc(Cl)cc1` [CBK159632], the viability at 28.5 h, 10 µM was determined as 91.7%.

Regarding `O=C(Nc1cccc2[nH]ccc12)c1cccc(F)c1Cl` [CBK159638], the viability at 28.5 h, 10 µM is 76.4%.

As to `O=C(Nc1cccc2[nH]ccc12)c1ccc(Br)cc1Cl` [CBK159643], the viability at 28.5 h, 10 µM worked out at 78.7%.

As for `CC(C(=O)Nc1cccc2[nH]ccc12)c1ccc(Cl)cc1` (stereo not drawn) [CBK159647], the viability at 28.5 h, 10 µM was found to be 107%.

As to `O=C(Cc1cc(F)cc(F)c1F)Nc1cccc2[nH]ccc12` [CBK159650], the viability at 28.5 h, 10 µM amounted to 89%.

Regarding `O=C(COc1ccc(F)cc1)Nc1cccc2[nH]ccc12` [CBK159653], the viability at 28.5 h, 10 µM turned out to be 86%.

Regarding `CSCCC(=O)Nc1cccc2[nH]ccc12` [CBK159655], the viability at 28.5 h, 10 µM turned out to be 105%.

As to `O=C(Nc1cccc2[nH]ccc12)c1ccc2c(c1)OCCO2` [CBK159657], the viability at 28.5 h, 10 µM is 85.7%.

Consider `O=C(Nc1cccc2[nH]ccc12)c1ccoc1` [CBK159659], for which the viability at 28.5 h, 10 µM was determined as 94.8%.

Take `CN(C)CCCC(=O)Nc1cccc2[nH]ccc12` [CBK159660]: the viability at 28.5 h, 10 µM stood at 99.9%.

For the molecule `O=C(Cc1c(Cl)cccc1Cl)Nc1ccc2[nH]ccc2c1` [CBK159664], the viability at 28.5 h, 10 µM was found to be 113%.

Turning to `O=C(Nc1ccc2[nH]ccc2c1)c1c(F)ccc(Cl)c1F` [CBK159673], the viability at 28.5 h, 10 µM is 78.6%.

Regarding `Cc1ccc(C(=O)Nc2ccc3[nH]ccc3c2)cc1Cl` [CBK159677], the viability at 28.5 h, 10 µM was 85.5%.

Consider `COc1ccc(C(=O)Nc2ccc3[nH]ccc3c2)cc1Cl` [CBK159681], for which the viability at 28.5 h, 10 µM turned out to be 94%.

As to `O=C(Nc1ccc2[nH]ccc2c1)c1ccc(F)c(F)c1` [CBK159683], the viability at 28.5 h, 10 µM was determined as 88.3%.

As to `O=C(Cc1cc(F)cc(F)c1F)Nc1ccc2[nH]ccc2c1` [CBK159686], the viability at 28.5 h, 10 µM stood at 87.4%.

For `O=C(Nc1ccc2[nH]ccc2c1)c1ccc(OC(F)(F)F)cc1` [CBK159688], the viability at 28.5 h, 10 µM worked out at 61.5%.

Consider `Cc1cc(CC(=O)Nc2ccc3[nH]ccc3c2)on1` [CBK159690], for which the viability at 28.5 h, 10 µM was determined as 103%.

Turning to `COc1cc(C(=O)Nc2ccc3[nH]ccc3c2)cc(OC)c1OC` [CBK159696], the viability at 28.5 h, 10 µM turned out to be 92.9%.

Regarding `CSCCC(=O)Nc1ccc2c(ccn2Cc2ccccc2)c1` [CBK159732], the viability at 28.5 h, 10 µM was 69.4%.

Consider `CN(C)CCCC(=O)Nc1ccc2c(ccn2Cc2ccccc2)c1` [CBK159740], for which the viability at 28.5 h, 10 µM is 91.2%.

As to `O=C(Cc1ccc(Cl)cc1Cl)NCCc1c[nH]c2ccc(Cl)cc12` [CBK159744], the viability at 28.5 h, 10 µM came out at 104%.

For the molecule `O=C(NCCc1c[nH]c2ccc(Cl)cc12)c1ccc(Cl)cc1Br` [CBK159755], the viability at 28.5 h, 10 µM came to 96.3%.

As to `O=C(NCCc1c[nH]c2ccc(Cl)cc12)c1cc(F)c(Cl)cc1F` [CBK159763], the viability at 28.5 h, 10 µM is 93.6%.

For `Cc1cc(Br)ccc1C(=O)NCCc1c[nH]c2ccc(Cl)cc12` [CBK159771], the viability at 28.5 h, 10 µM is 91%.

Turning to `Cc1cc(CC(=O)NCCc2c[nH]c3ccc(Cl)cc23)on1` [CBK159774], the viability at 28.5 h, 10 µM stood at 86.4%.

Regarding `CSCCC(=O)NCCc1c[nH]c2ccc(Cl)cc12` [CBK159775], the viability at 28.5 h, 10 µM came to 95.6%.

Regarding `O=C(NCCc1c[nH]c2ccc(Cl)cc12)c1cccnc1` [CBK159778], the viability at 28.5 h, 10 µM was 106%.

In the case of `O=C(Nc1ccc2ncccc2c1)c1ccc(F)cc1Cl` [CBK159796], the viability at 28.5 h, 10 µM is 91.1%.

Consider `O=C(Nc1ccc2ncccc2c1)c1cccc(F)c1Cl` [CBK159800], for which the viability at 28.5 h, 10 µM amounted to 85.9%.

Turning to `Cc1cc(C(=O)Nc2ccc3ncccc3c2)ccc1Cl` [CBK159804], the viability at 28.5 h, 10 µM turned out to be 88.8%.

On to `O=C(Nc1ccc2ncccc2c1)c1ccc(F)c(F)c1` [CBK159810], for which the viability at 28.5 h, 10 µM turned out to be 78.5%.

As to `O=C(Nc1ccc2ncccc2c1)c1ccoc1` [CBK159823], the viability at 28.5 h, 10 µM was 95.8%.

Turning to `CN1CCC[C@H]1C(=O)Nc1ccc2ncccc2c1` [CBK159825], the viability at 28.5 h, 10 µM amounted to 95.7%.

In the case of `CC(C)Cn1c(=O)c(C(=O)Nc2cccc(Cl)c2)c(O)c2ccccc21` [CBK159967], the viability at 28.5 h, 10 µM was determined as 103%.

As for `CC(C)CCNC(=O)c1c(O)c2ccccc2[nH]c1=O` [CBK159975], the viability at 28.5 h, 10 µM worked out at 91.7%.

As for `COc1cc2[nH]c(=O)c(C(=O)NCCc3ccc(Cl)cc3)c(O)c2cc1OC` [CBK159986], the viability at 28.5 h, 10 µM was found to be 91.3%.

For the molecule `COc1cc2ncc(C(=O)NCc3cccs3)c(O)c2cc1OC` [CBK159998], the viability at 28.5 h, 10 µM is 91.9%.

Regarding `COCCNC(=O)c1cnc2ccc(OC)cc2c1O` [CBK159999], the viability at 28.5 h, 10 µM was 95.9%.

Consider `O=C(COc1ccc(Cl)cc1Cl)Nc1ccc2cc[nH]c2c1` [CBK160023], for which the viability at 28.5 h, 10 µM stood at 92.5%.

In the case of `O=C(Cc1ccc(F)cc1F)Nc1ccc2cc[nH]c2c1` [CBK160044], the viability at 28.5 h, 10 µM worked out at 102%.

As to `Cc1cc(Br)ccc1C(=O)Nc1ccc2cc[nH]c2c1` [CBK160046], the viability at 28.5 h, 10 µM was 84.1%.

On to `O=C(Nc1ccc2cc[nH]c2c1)c1cccnc1` [CBK160053], for which the viability at 28.5 h, 10 µM came out at 97.9%.

For the molecule `O=C(Nc1cccc2cc[nH]c12)c1cccc(F)c1Cl` [CBK160074], the viability at 28.5 h, 10 µM is 99.8%.

For the molecule `Cc1cc(C(=O)Nc2cccc3cc[nH]c23)ccc1Cl` [CBK160078], the viability at 28.5 h, 10 µM is 96.2%.

Turning to `NS(=O)(=O)c1ccc(C(=O)Nc2cccc3cc[nH]c23)cc1` [CBK160094], the viability at 28.5 h, 10 µM was found to be 94.8%.

Take `CN1CCC[C@H]1C(=O)Nc1cccc2cc[nH]c12` [CBK160098]: the viability at 28.5 h, 10 µM amounted to 104%.

For `CCOC(=O)C1CCN(C(=O)c2cccnc2NCc2ccc3c(c2)OCO3)CC1` [CBK160106], the viability at 28.5 h, 10 µM stood at 118%.

For the molecule `Cc1ccc2c(c1)CCCN2C(=O)c1cccnc1NCc1ccc2c(c1)OCO2` [CBK160113], the viability at 28.5 h, 10 µM was 94.5%.

As for `O=C(Cc1nnn[nH]1)Nc1cccc(-c2nn[nH]n2)c1` [CBK160122], the viability at 28.5 h, 10 µM worked out at 116%.

On to `CCOC(=O)c1[nH]c2ccccc2c1NC(=O)Cc1c(Cl)cccc1Cl` [CBK160132], for which the viability at 28.5 h, 10 µM came to 95.6%.

On to `CCOC(=O)c1[nH]c2ccccc2c1NC(=O)COc1ccc(Cl)cc1Cl` [CBK160134], for which the viability at 28.5 h, 10 µM was found to be 102%.

For `CCOC(=O)c1[nH]c2ccccc2c1NC(=O)c1ccc(Cl)cc1Br` [CBK160140], the viability at 28.5 h, 10 µM is 96.7%.

Take `CCOC(=O)c1[nH]c2ccccc2c1NC(=O)CS(=O)(=O)c1ccc(C)cc1` [CBK160162]: the viability at 28.5 h, 10 µM was 94.3%.

In the case of `CC(=O)Nc1ccc(-c2ccc(C(=O)N3CCN(C(=O)OCc4ccccc4)CC3)cn2)cc1` [CBK160185], the viability at 28.5 h, 10 µM came to 87.6%.

As for `CC(=O)Nc1ccc(-c2ccc(C(=O)N3CCN(C(=O)N4CCCC4)CC3)cn2)cc1` [CBK160187], the viability at 28.5 h, 10 µM amounted to 94.5%.

Regarding `CC(=O)Nc1ccc(-c2ccc(C(=O)N3CCC(Sc4ccccc4)CC3)cn2)cc1` [CBK160188], the viability at 28.5 h, 10 µM was found to be 99.6%.

Consider `CS(=O)(=O)c1ccc(-c2ccc(C(=O)N3CCN(C(=O)OCc4ccccc4)CC3)cn2)cc1` [CBK160189], for which the viability at 28.5 h, 10 µM came to 107%.

Regarding `CS(=O)(=O)c1ccc(-c2ccc(C(=O)N3CCN(C(=O)c4ccco4)CC3)cn2)cc1` [CBK160190], the viability at 28.5 h, 10 µM was 95.2%.

With `Nc1ncc(-c2ccc(C(=O)N3CCOCC3)cc2)cc1C(=O)Nc1ccc(C(F)(F)F)cc1` [CBK160204], the viability at 28.5 h, 10 µM worked out at 90.6%.

As to `COc1cccc(NC(=O)c2cncc(-c3ccc(C(=O)N4CCOCC4)cc3)c2)c1` [CBK160213], the viability at 28.5 h, 10 µM came out at 96.2%.

Consider `NC(=O)c1ccc(NC(=O)c2cncc(-c3ccc(C(=O)N4CCOCC4)cc3)c2)cc1` [CBK160214], for which the viability at 28.5 h, 10 µM came to 106%.

As to `O=C(Nc1ccc(F)c(C(F)(F)F)c1)c1cncc(-c2ccc(C(=O)N3CCOCC3)cc2)c1` [CBK160216], the viability at 28.5 h, 10 µM came to 88.2%.

Regarding `CCOC(=O)N1CCC(NC(=O)c2cnn3c(C)c(Cc4ccccc4)c(C)nc23)CC1` [CBK160293], the viability at 28.5 h, 10 µM is 90.7%.

With `CCOC(=O)C1CCN(C(=O)c2cnn3c(C)c(Cc4cccc(Cl)c4)c(C)nc23)CC1` [CBK160305], the viability at 28.5 h, 10 µM worked out at 92.5%.

Regarding `Cc1onc(-c2ccccc2Cl)c1C(=O)N(C)C` [CBK160325], the viability at 28.5 h, 10 µM is 102%.

Source of the values: article PMC12040169 (PLOS Biology, 2025).
